In US20050101542A1, “Combination therapy for controlling appetites” (Regents of the University of California, priority 2002, published 2005):

What was measured:
[1] = Other behavioral assays (elevated plus maze, open field, hot plate, rectal temperature); format: in vivo, rat
Procedure: Other behavioral assays. The elevated plus maze test was conducted as described (Navarro, et al., Neuroreport, 8:491-496 (1997)) after the administration of vehicle or OEA (20 mg per kg, i.p.). Horizontal activity in an open field (Beltramo et al., J. Neurosci., 20:3401-3407 (2000)) and pain threshold in the hot plate test (55° C.) (Beltramo et al., Science, 277:1094-1097 (1997)) were measured 15 min after injection of vehicle or OEA (20 mg per kg). Rectal temperature was measured using a digital thermometer (Martin-Calderón et al., Eur. J. Pharmacol., 344:77-86. (1998)).

[2] = Acute food intake in 24-h food-deprived rats, i.p. dosing; format: in vivo, rat
Procedure: Feeding experiments. Acute experiments. Food intake was measured in 24-h food-deprived rats (Navarro, et al., J. Neurochem., 67:1982-1991 (1996)), administering drugs 15 min before food presentation. Subchronic experiments. Ad libitum fed rats received vehicle injections for three days. On day four, the animals were divided in two equal groups and gave them daily injections of vehicle or OEA (5 mg per kg at 1900 h) for 7 consecutive days, while measuring body weight, food intake and water intake.
The effects of systemically administered OEA or an OEA-like compound or OEA-like modulator on food intake in rats can be assessed using a 24 h fast. […] To define the selectivity of this response, various OEA analogs were evaluated for their ability to produce hypophagia.

[3] = Plasma hormone levels by radioimmunoassay; format: in vivo, rat; conditions: 20 mg per kg i.p.
Procedure: Blood chemistry. Plasma β-hydroxybutyrate and glycerol were measured using commercial kits (Sigma, St. Louis, Mo.). Plasma prolactin, corticosterone and luteinizing hormone were quantified by radioimmunoassay (Navarro, et al., Neuroreport, 8:491-496 (1997)).

[4] = Food intake in vagotomized or capsaicin-treated rats, Example 3; format: in vivo, rat; conditions: rats; OEA 10, Wy-14643 40 mg kg^−1 i.p.
PPAR-α-regulated genes = test: Real time quantitative PCR of gene expression in mouse intestine and liver; format: in vivo
Procedure: Tissues were stored in RnaLater™ (Ambion), extracted total RNA with TRIzol™ (Invitrogen) and quantified it with Ribogreen™ (Molecular Probes). cDNA was synthesized by using SuperscriptII RNase H-reverse transcriptase (Invitrogen).
Reverse transcription of total RNA (2 μg) was performed using Oligo(dT)12-18 primer (0.2 μg) for 50 min at 42° C. Real Time Quantitative (RTQ) PCR was conducted using an ABI PRISM 7700 sequence detection system (Applied Biosystems). Primer/probe sets were designed using the Primer Express™ software and gene sequences available from the Genebank™ database. Primers and fluorogenic probes were synthesized by TIB (Adelphia). The primer/probe sequences for the mouse genes were:
RNA levels were normalized by using glyceraldehyde 3-phosphate dehydrogenase (GAPDH) as an internal standard. mRNA levels were measured by generating six-point serial standard curves using mouse total RNA. Estimates of relative mRNA abundance (in arbitrary units) were made by using the CT value (Schmittgen et al., 2000). Relative quantifications of RNAs of interest were made by using the 2^ΔCT formula, in which ΔCT was calculated by subtracting the CT value for GAPDH from the CT value for the gene of interest. This formula was validated for each primer/probe set by using six-point serial standard curves.

Adipocyte = test: Lypolysis (glycerol release) in adipocytes; format: cell-based, rat; conditions: 30 min incubation
Description: (§1) This example illustrates the effect of OEA on fat metabolism and methods for studying the same. Oleoylethanolamide (OEA) decreases body weight not only by suppressing appetite, but also by possibly enhancing body fat catabolism. The effects of OEA on fatty acid oxidation in major body-fat burning tissues (soleus muscle, liver, cultured cardiac myocytes and astrocytes) was examined. […] In addition, OEA induces a significant mobilization of triacylglycerol stores from primary white adipose tissue cells. Table 4 details the methods and effects of OEA on fatty acid oxidation in these cells. Structure-activity relationship experiments provide evidence that the effect of OEA on skeletal muscle fatty acid oxidation is specific (FIG. 8).

Cardiomyocyte = test: [14C]oleate oxidation to CO2 in cardiomyocytes; format: cell-based, rat; conditions: 30 min incubation
Description: as §1

human PPARα = target: T1, human PPARα (Homo sapiens, UniProt Q07869); test: GAL4 chimeric receptor transactivation assay in HeLa cells, PPARα; format: cell-based; conditions: HeLa transactivation assay, 7 hours; read-out: EC50 for PPARα activation
T1 construct: expressed in transfected cells; host or cells: HeLa (clonal reporter line HLR, stably transfected with pFA-PPARα)
T1 sequence (Q07869 239-466 limits assumed): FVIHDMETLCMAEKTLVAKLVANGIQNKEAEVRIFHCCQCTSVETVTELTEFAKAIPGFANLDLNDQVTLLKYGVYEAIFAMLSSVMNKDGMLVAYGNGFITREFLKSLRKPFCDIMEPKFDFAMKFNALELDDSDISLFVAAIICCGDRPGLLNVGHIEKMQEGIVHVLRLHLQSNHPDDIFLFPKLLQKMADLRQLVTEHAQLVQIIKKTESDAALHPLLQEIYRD
Procedure: Eighteen hours following transfection, the culture media was replaced with supplemented DMEM containing hygromycin (100 μg-ml^−1, Calbiochem). After 4 weeks in culture, the surviving clones were isolated and analyzed by luciferase assay. […] The cells were cultured in supplemented DMEM containing hygromycin and G418. For transactivation assays, cells were seeded in 6-well plates (50,000 cells per well) and incubated for 7 hours in supplemented DMEM containing hygromycin and G418, plus appropriate concentrations of test compounds. Dual-luciferase reporter assay system (Promega) and an MLX Microtiter® plate luminometer (Dynex) were used to determine luciferase activity in cell lysates.

[5] = Acute feeding experiments in free-feeding mice (C57BL/6J, wild-type, PPARα-null); format: in vivo, mouse
Procedure: Acute experiments. Drugs or appropriate vehicles (saline, for CCK-8 and d-fenfluramine; dimethylsulfoxide/saline, 70/30, for all other agents; 4 ml-kg^−1; i.p.) were administered at 5:00-5:30 PM to free-feeding mice, which were habituated to the experimental setting.

With `CCCCCCCC/C=C\CCCCCCCC(=O)NCCO` [OEA, Z-2-hydroxyethyl octadec-9-enamide] the “anxiety-like symptoms (elevated plus maze)” value ([1]; acute) was “did not produce”, the body temperature ([1]; acute, 5 or 20 mg per kg) was “did not alter” and the “pain threshold (hot plate)” value ([1]; acute, 5 or 20 mg per kg) was “did not alter”. For the same molecule, the “motor activity (open field)” value ([1]; at a dose substantially higher than those required to produce hypophagia) was “reduced”, the “food intake (hypophagia)” value ([2]; 24-h food-deprived rats, i.p.) was “dose- and time-dependent suppression of food intake” and the water intake ([2]; acute, 5 or 20 mg per kg) was “did not alter”. For the same molecule, the “half-maximally effective dose for hypophagia” value ([2]; i.p., rats) was 5 mg per kg, the “activity of the hypothalamus-pituitary-adrenal (HPA) axis” value [3] was “did not alter” and the “food intake after vagotomy or capsaicin treatment” value [4] was “no effect”. For the same molecule, the “expression of PPAR-α-regulated genes” value (PPAR-α-regulated genes; ileum) was “not and fail to induce expression”, the “expression of PPAR-α-regulated genes (PPAR-α, FAT/CD36, FATP1)” value (PPAR-α-regulated genes; jejunum of wild-type mice, OEA or oleic acid 10, Wy-14643 30 mg kg^−1 i.p.) was “increased the expression” and the “expression of genes not under the control of PPAR-α (I-FABP, PPAR-β/δ, PPAR-γ)” value (PPAR-α-regulated genes; jejunum, wild-type or PPAR-α-null mice) was “not affected”. For the same molecule, the “gene expression in mice deficient in PPAR-α” value (PPAR-α-regulated genes; jejunum, OEA 10, Wy-14643 30 mg kg^−1 i.p.) was “did not stimulate gene expression”, the “transcription of PPAR-α-regulated genes” value (PPAR-α-regulated genes; liver of wild-type mice) was “initiated transcription” and the “Stimulatory effect of 10 μM OEA on lypolysis (glycerol release)” value (Adipocyte) was 38 ± 16 (n = 3) %. For the same molecule, the “Stimulatory effect of 10 μM OEA on [14C]oleate oxidation to CO2” value (Cardiomyocyte) was 37 ± 9 (n = 3) %, the EC50 (human PPARα) was 120 nM and the “meal pattern analysis (eating latency, meal size, post-meal interval)” value ([5]; C57BL/6J mice) was “essentially identical”. The “feeding in wild-type mice” value ([5]; OEA 10 mg-kg^−1 i.p.) was “reduces feeding” and the “feeding in PPARα-deficient mice” value ([5]; OEA 10, Wy-14643 40, d-fenfluramine 4 mg-kg^−1, CCK-8 25 μg-kg^−1, i.p.) was “absent and not”.
